Measured values reported in patent publication US20060241084A1, “Inhibition of vascular endothelial growth factor” (THE HOSPITAL FOR SICK CHILDREN, priority 2002, published 2006).

Key:
[1] = CR-4 dependent inhibition of VEGF secretion from cell lines (VEGF-165 ELISA of medium); assay type: cell-based; conditions: Homo sapiens; all cell lines; 10^6 cells/ml incubated 5 hrs with compound, washed, fresh medium 24 hrs; FIGS. 1 to 4
Experimental: VEGF secretion from the breast cancer cell lines HTB-133 (KDR+), HTB-131 (KDR−) and MDA-231, HTB-181 prostate cancer cell line, HTB-72 melanoma cell line, CR2-1730 human umbilical vascular endothelial (HUV-EC-C) cell line and normal HUVEC primary cells was measured as follows.
Medium was collected and analysed for the presence of VEGF using VEGF-165 ELISA kit (R&D Systems).
CR-4 dependent inhibition of VEGF secretion from breast, prostate, melanoma and HUVEC cell lines.
10^6 cells/ml of each cell lines were incubated for 5 hrs. with various concentrations of CR-4. Cells were washed twice in PBS to remove CR4 and fresh medium was added for 24 hrs. Medium was collected and analysed for the presence of VEGF using VEGF-165 ELISA kit (R&D Systems).

HUVEC = test: Inhibition of HUVEC growth by CR-4 induced VEGF depleted media of breast cancer cell lines ([3H]-Thymidine incorporation); assay type: cell-based, human; conditions: FIG. 5
Experimental: CR-4 dependent inhibition of VEGF secretion results in the inhibition of HUVEC growth.
After an incubation for 5 hrs. with various concentrations of CR-4 the wells were washed twice and fresh HUVEC medium was added for 24 hrs. This medium with or without 10 ng/ml of recombinant VEGF was then transferred to parallel wells containing 10^5 cells/ml of HUVEC that were plated and grown in HUVEC medium for 24 hrs. Radioactive labelled [^3H]-Thymidine was added to HUVEC wells over night. Cells were harvested and their [^3H]-Thymidine incorporation was measured.

[2] = system: VEGF secretion from HTB-133 and MDA-231 cells; test: CR11 and CR19 dependent inhibition of VEGF secretion from breast cancer cell lines (VEGF-165 ELISA of medium); assay type: cell-based; conditions: Homo sapiens, MDA-MB-231, 10^6 cells/ml incubated 5 hours with compound, washed, fresh medium 24 hours, FIGS. 6 and 7
Experimental: CR11 and CR19 dependent inhibition of VEGF secretion from breast cancer cell lines.
Procedure: 10^6 cells/ml of each of HTB-133 and MDA-231 cells were incubated for 5 hours with various concentrations of CR11 or CR19. Cells were washed twice in PBS to remove CR11 and CR19 and fresh medium was added for 24 hours. Medium was collected and analysed for the presence of VEGF using VEGF-165 ELISA kit (R&D Systems).

SMILES	IC50 [1] [nM]	Effect of recombinant VEGF on the inhibition of HUVEC growth (HUVEC; 10 ng/ml recombinant VEGF added to the conditioned medium)	IC50 (HUVEC; Homo sapiens, medium of HTB-133 (KDR+) and HTB-131 (KDR-) cells treated 5 hrs with compound, transferred to HUVEC, [3H]-Thymidine incorporation) [nM]	IC50 [2] [nM]
N#C/C(=C\C=C\c1ccc(O)c(O)c1)C(=O)NCc1ccccc1 [CR4, (E,E)-2-(Benzylaminocarbonyl)-3-(3,4-dihydroxystyryl)acrylonitrile]	10 to 30	rescued by recombinant VEGF	20 to 30	–
COc1cc(/C=C/C=C(\C#N)C(=O)NCc2ccc(O)c(O)c2)cc(OC)c1O [CR11, (E,E)-2-(3,4-Dihydroxybenzylaminocarbonyl)-3-(3,5-dimethoxy-4-hydroxystyryl)acrylonitrile]	–	–	–	~30
N#C/C(=C\C=C\c1ccccc1)C(=O)NCc1ccc(O)c(O)c1 [CR19, (E,E)-2-(3,4 Dihydroxybenzylaminocarbonyl)-3-styrylacrylonitrile]	–	–	–	~30
